Several values for one entry are separate records, joined by “and”; a condition that tells them apart may be missing. Equal values may be shown once.
Tests used:
[1] = test system: S. furcifera adults; test: Y-tube olfactometer behavioral trials; format: in vivo, Sogatella furcifera; conditions: odorant 50 µL/L vs hexane; adults
Procedure, shortened: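 Single S. furcifera adults (2 days post-emergence, starved 0.5 h) chose between odorant (100 µL of 50 µL/L on filter paper) and hexane control in a glass Y-tube, charcoal-filtered humidified air 300 mL/min per arm, 25 ± 1 °C, 50% RH. Choice scored if insect passed half an arm and stayed >1 min within 10 min; 45 insects per compound, chi-squared test.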

[2] = target: SfurOBP11 (Sogatella furcifera, UniProt V5T6E3); test: biochemical; format: binding
Chain of SfurOBP11 (V5T6E3 entry or part of it): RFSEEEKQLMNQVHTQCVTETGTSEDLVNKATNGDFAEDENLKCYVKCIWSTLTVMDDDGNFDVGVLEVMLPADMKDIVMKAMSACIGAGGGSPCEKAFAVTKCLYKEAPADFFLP
Procedure, shortened: (§1)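 1-NPN displacement assay with odorant competitor at 2–20 µM; protein and probe both 2.0 µM at pH 7.4. Ki is calculated from IC50 using the protein/1-NPN dissociation constant.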

[3] = target: SfurOBP1 (Sogatella furcifera, UniProt V5T8N5); test: biochemical; format: binding; conditions: for Fluorescence competitive binding assay, fluorescence intensity: OBP1, three replicate columns
Chain of SfurOBP1 (V5T8N5 entry or part of it): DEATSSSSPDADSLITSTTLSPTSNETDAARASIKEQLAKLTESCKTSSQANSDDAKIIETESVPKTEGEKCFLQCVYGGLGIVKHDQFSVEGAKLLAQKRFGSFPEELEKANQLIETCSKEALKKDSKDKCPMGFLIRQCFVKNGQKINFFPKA
Procedure, shortened: as §1

[4] = target: SfurOBP3 (Sogatella furcifera, UniProt V5T818); test: biochemical; format: binding; conditions: for Fluorescence competitive binding assay, fluorescence intensity: OBP3, three replicate columns
Chain of SfurOBP3 (V5T818 entry or part of it): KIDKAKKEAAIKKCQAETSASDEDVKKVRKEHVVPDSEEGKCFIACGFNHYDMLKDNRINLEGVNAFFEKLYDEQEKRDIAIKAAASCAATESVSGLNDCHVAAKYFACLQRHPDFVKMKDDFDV
Procedure, shortened: as §1

[5] = target: SfurOBP2 (Sogatella furcifera, UniProt V5T759); test: biochemical; format: binding
Chain of SfurOBP2 (V5T759 entry or part of it): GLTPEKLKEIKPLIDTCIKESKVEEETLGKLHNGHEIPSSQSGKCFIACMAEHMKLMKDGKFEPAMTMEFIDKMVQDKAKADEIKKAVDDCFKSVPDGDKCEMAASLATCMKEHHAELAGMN
Procedure, shortened: as §1

C=CC(C)(O)CCC=C(C)C (stereo not drawn) [linalool]
number of insects choosing hexane arm [1]: 14
number of insects choosing volatilies arm [1]: 14
number of insects failed (no choice) [1]: 12
IC50 [2]: > 20 µM
Fluorescence intensity, fluorescence competitive binding assay, OBP11 ([2]; ligand concentration 2, replicate 1): 34595
Fluorescence intensity, fluorescence competitive binding assay, OBP11 ([2]; ligand concentration 2, replicate 2): 35145
Fluorescence intensity, fluorescence competitive binding assay, OBP11 ([2]; ligand concentration 2, replicate 3): 35691
Fluorescence intensity, fluorescence competitive binding assay, OBP11 ([2]; ligand concentration 4, replicate 1): 34126
Fluorescence intensity, fluorescence competitive binding assay, OBP11 ([2]; ligand concentration 4, replicate 2): 38977
Fluorescence intensity, fluorescence competitive binding assay, OBP11 ([2]; ligand concentration 4, replicate 3): 36540
Fluorescence intensity, fluorescence competitive binding assay, OBP11 ([2]; ligand concentration 6, replicate 1): 35921
Fluorescence intensity, fluorescence competitive binding assay, OBP11 ([2]; ligand concentration 6, replicate 2): 34102
Fluorescence intensity, fluorescence competitive binding assay, OBP11 ([2]; ligand concentration 6, replicate 3): 34901
Fluorescence intensity, fluorescence competitive binding assay, OBP11 ([2]; ligand concentration 8, replicate 1): 31879
Fluorescence intensity, fluorescence competitive binding assay, OBP11 ([2]; ligand concentration 8, replicate 2): 34190
Fluorescence intensity, fluorescence competitive binding assay, OBP11 ([2]; ligand concentration 8, replicate 3): 34940
Fluorescence intensity, fluorescence competitive binding assay, OBP11 ([2]; ligand concentration 10, replicate 1): 32152
Fluorescence intensity, fluorescence competitive binding assay, OBP11 ([2]; ligand concentration 10, replicate 2): 33920
Fluorescence intensity, fluorescence competitive binding assay, OBP11 ([2]; ligand concentration 10, replicate 3): 34003
Fluorescence intensity, fluorescence competitive binding assay, OBP11 ([2]; ligand concentration 12, replicate 1): 31331
Fluorescence intensity, fluorescence competitive binding assay, OBP11 ([2]; ligand concentration 12, replicate 2): 31885
Fluorescence intensity, fluorescence competitive binding assay, OBP11 ([2]; ligand concentration 12, replicate 3): 32147
Fluorescence intensity, fluorescence competitive binding assay, OBP11 ([2]; ligand concentration 14, replicate 1): 27789
Fluorescence intensity, fluorescence competitive binding assay, OBP11 ([2]; ligand concentration 14, replicate 2): 28913
Fluorescence intensity, fluorescence competitive binding assay, OBP11 ([2]; ligand concentration 14, replicate 3): 26664
Fluorescence intensity, fluorescence competitive binding assay, OBP11 ([2]; ligand concentration 16, replicate 1): 26184
Fluorescence intensity, fluorescence competitive binding assay, OBP11 ([2]; ligand concentration 16, replicate 2): 25844
Fluorescence intensity, fluorescence competitive binding assay, OBP11 ([2]; ligand concentration 16, replicate 3): 25199
Fluorescence intensity, fluorescence competitive binding assay, OBP11 ([2]; ligand concentration 18, replicate 1): 30237
Fluorescence intensity, fluorescence competitive binding assay, OBP11 ([2]; ligand concentration 18, replicate 2): 30011
Fluorescence intensity, fluorescence competitive binding assay, OBP11 ([2]; ligand concentration 18, replicate 3): 30462
Fluorescence intensity, fluorescence competitive binding assay, OBP11 ([2]; ligand concentration 20, replicate 1): 29291
Fluorescence intensity, fluorescence competitive binding assay, OBP11 ([2]; ligand concentration 20, replicate 2): 29263
Fluorescence intensity, fluorescence competitive binding assay, OBP11 ([2]; ligand concentration 20, replicate 3): 28048
IC50 [3]: > 20 µM
Fluorescence competitive binding assay, fluorescence intensity ([3]; ligand concentration 2 (μM)): 6084 and 5184 and 7029
Fluorescence competitive binding assay, fluorescence intensity ([3]; ligand concentration 4 (μM)): 5717 and 6456 and 6034
Fluorescence competitive binding assay, fluorescence intensity ([3]; ligand concentration 6 (μM)): 5873 and 6101 and 6679
Fluorescence competitive binding assay, fluorescence intensity ([3]; ligand concentration 8 (μM)): 5733 and 6957 and 6693
Fluorescence competitive binding assay, fluorescence intensity ([3]; ligand concentration 10 (μM)): 5847 and 5923 and 6121
Fluorescence competitive binding assay, fluorescence intensity ([3]; ligand concentration 12 (μM)): 6065 and 6137 and 6412
Fluorescence competitive binding assay, fluorescence intensity ([3]; ligand concentration 14 (μM)): 7822 and 5806 and 6262
Fluorescence competitive binding assay, fluorescence intensity ([3]; ligand concentration 16 (μM)): 5059 and 6382 and 5339
Fluorescence competitive binding assay, fluorescence intensity ([3]; ligand concentration 18 (μM)): 6537 and 6532 and 5815
Fluorescence competitive binding assay, fluorescence intensity ([3]; ligand concentration 20 (μM)): 6056 and 5740 and 5464
IC50 [4]: > 20 µM
Fluorescence competitive binding assay, fluorescence intensity ([4]; ligand concentration 2): 45666 and 44893 and 46206
Fluorescence competitive binding assay, fluorescence intensity ([4]; ligand concentration 4): 43749 and 45410 and 42660
Fluorescence competitive binding assay, fluorescence intensity ([4]; ligand concentration 6): 44364 and 44740 and 45115
Fluorescence competitive binding assay, fluorescence intensity ([4]; ligand concentration 8): 41369 and 43894 and 46339
Fluorescence competitive binding assay, fluorescence intensity ([4]; ligand concentration 10): 41142 and 43565 and 45619
Fluorescence competitive binding assay, fluorescence intensity ([4]; ligand concentration 12): 38618 and 37689 and 38140
Fluorescence competitive binding assay, fluorescence intensity ([4]; ligand concentration 14): 35045 and 37361 and 38462
Fluorescence competitive binding assay, fluorescence intensity ([4]; ligand concentration 16): 32691 and 35765 and 36425
Fluorescence competitive binding assay, fluorescence intensity ([4]; ligand concentration 18): 35273 and 34668 and 35335
Fluorescence competitive binding assay, fluorescence intensity ([4]; ligand concentration 20): 34176 and 32081 and 34822
IC50 [5]: > 20 µM
Fluorescence competitive binding assay, OBP2 (raw fluorescence reading) ([5]; ligand concentration 2 (unit not given), replicate column 1 of 3): 22475
Fluorescence competitive binding assay, OBP2 (raw fluorescence reading) ([5]; ligand concentration 2 (unit not given), replicate column 2 of 3): 19579
Fluorescence competitive binding assay, OBP2 (raw fluorescence reading) ([5]; ligand concentration 2 (unit not given), replicate column 3 of 3): 19869
Fluorescence competitive binding assay, OBP2 (raw fluorescence reading) ([5]; ligand concentration 4 (unit not given), replicate column 1 of 3): 18324
Fluorescence competitive binding assay, OBP2 (raw fluorescence reading) ([5]; ligand concentration 4 (unit not given), replicate column 2 of 3): 21526
Fluorescence competitive binding assay, OBP2 (raw fluorescence reading) ([5]; ligand concentration 4 (unit not given), replicate column 3 of 3): 18676
Fluorescence competitive binding assay, OBP2 (raw fluorescence reading) ([5]; ligand concentration 6 (unit not given), replicate column 1 of 3): 20143
Fluorescence competitive binding assay, OBP2 (raw fluorescence reading) ([5]; ligand concentration 6 (unit not given), replicate column 2 of 3): 19481
Fluorescence competitive binding assay, OBP2 (raw fluorescence reading) ([5]; ligand concentration 6 (unit not given), replicate column 3 of 3): 21546
Fluorescence competitive binding assay, OBP2 (raw fluorescence reading) ([5]; ligand concentration 8 (unit not given), replicate column 1 of 3): 18566
Fluorescence competitive binding assay, OBP2 (raw fluorescence reading) ([5]; ligand concentration 8 (unit not given), replicate column 2 of 3): 19629
Fluorescence competitive binding assay, OBP2 (raw fluorescence reading) ([5]; ligand concentration 8 (unit not given), replicate column 3 of 3): 19018
Fluorescence competitive binding assay, OBP2 (raw fluorescence reading) ([5]; ligand concentration 10 (unit not given), replicate column 1 of 3): 17948
Fluorescence competitive binding assay, OBP2 (raw fluorescence reading) ([5]; ligand concentration 10 (unit not given), replicate column 2 of 3): 18880
Fluorescence competitive binding assay, OBP2 (raw fluorescence reading) ([5]; ligand concentration 10 (unit not given), replicate column 3 of 3): 17034
Fluorescence competitive binding assay, OBP2 (raw fluorescence reading) ([5]; ligand concentration 12 (unit not given), replicate column 1 of 3): 17194
Fluorescence competitive binding assay, OBP2 (raw fluorescence reading) ([5]; ligand concentration 12 (unit not given), replicate column 2 of 3): 16713
Fluorescence competitive binding assay, OBP2 (raw fluorescence reading) ([5]; ligand concentration 12 (unit not given), replicate column 3 of 3): 16298
Fluorescence competitive binding assay, OBP2 (raw fluorescence reading) ([5]; ligand concentration 14 (unit not given), replicate column 1 of 3): 15375
Fluorescence competitive binding assay, OBP2 (raw fluorescence reading) ([5]; ligand concentration 14 (unit not given), replicate column 2 of 3): 15983
Fluorescence competitive binding assay, OBP2 (raw fluorescence reading) ([5]; ligand concentration 14 (unit not given), replicate column 3 of 3): 16080
Fluorescence competitive binding assay, OBP2 (raw fluorescence reading) ([5]; ligand concentration 16 (unit not given), replicate column 1 of 3): 16976
Fluorescence competitive binding assay, OBP2 (raw fluorescence reading) ([5]; ligand concentration 16 (unit not given), replicate column 2 of 3): 14612
Fluorescence competitive binding assay, OBP2 (raw fluorescence reading) ([5]; ligand concentration 16 (unit not given), replicate column 3 of 3): 14664
Fluorescence competitive binding assay, OBP2 (raw fluorescence reading) ([5]; ligand concentration 18 (unit not given), replicate column 1 of 3): 15874
Fluorescence competitive binding assay, OBP2 (raw fluorescence reading) ([5]; ligand concentration 18 (unit not given), replicate column 2 of 3): 15679
Fluorescence competitive binding assay, OBP2 (raw fluorescence reading) ([5]; ligand concentration 18 (unit not given), replicate column 3 of 3): 13833
Fluorescence competitive binding assay, OBP2 (raw fluorescence reading) ([5]; ligand concentration 20 (unit not given), replicate column 1 of 3): 14349
Fluorescence competitive binding assay, OBP2 (raw fluorescence reading) ([5]; ligand concentration 20 (unit not given), replicate column 2 of 3): 13969
Fluorescence competitive binding assay, OBP2 (raw fluorescence reading) ([5]; ligand concentration 20 (unit not given), replicate column 3 of 3): 12873

From publication PMC6409085, “Three odorant-binding proteins are involved in the behavioral response of Sogatella furcifera to rice plant volatiles” (PeerJ, 2019)
